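Compound exposure: 48 hours, 5 concentrations, 96-well plates. GI50 = concentration required for 50% inhibition of growth. TGI is the concentration that stops growth completely.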
Columns and labels:
Experiment in all cases: NCI-60 cell line screen, 48 h
SK-MEL-28 melanoma = system: SK-MEL-28 melanoma
MDA-MB-435 = system: MDA-MB-435
BT-549 breast = system: BT-549 breast
DU-145 prostate = system: DU-145 prostate
HOP-62 NSCLC = system: HOP-62 NSCLC
KM12 colon = system: KM12 colon
LOX IMVI melanoma = system: LOX IMVI melanoma
U251 CNS = system: U251 CNS
SK-OV-3 ovarian = system: SK-OV-3 ovarian
CCRF-CEM leukemia = system: CCRF-CEM leukemia

Compound	TGI (SK-MEL-28 melanoma)	TGI (MDA-MB-435)	TGI (BT-549 breast)	TGI (DU-145 prostate)	TGI (HOP-62 NSCLC)	TGI (KM12 colon)	TGI (LOX IMVI melanoma)	TGI (U251 CNS)	TGI (SK-OV-3 ovarian)	TGI (CCRF-CEM leukemia)	GI50 (SK-MEL-28 melanoma)	GI50 (SK-OV-3 ovarian)	GI50 (MDA-MB-435)	GI50 (DU-145 prostate)	GI50 (HOP-62 NSCLC)	GI50 (KM12 colon)	GI50 (CCRF-CEM leukemia)	GI50 (LOX IMVI melanoma)	GI50 (U251 CNS)
c1ccc(C(CCN2CC3CCC(CC3)C2)c2ccccc2)cc1	> 100 µM	65.4 µM	> 100 µM	> 100 µM	70.5 µM	87.4 µM	30.6 µM	35.1 µM											
c1ccc2c(c1)CC1COc3ccccc3C1O2 (configuration not stated)		> 100 µM	> 100 µM	> 100 µM	> 100 µM	> 100 µM	> 100 µM	> 100 µM	> 100 µM	> 100 µM									
O=[N+]([O-])c1ccc(Cl)cc1N/N=C/c1cccc2cccnc12	> 100 µM	> 100 µM	> 100 µM	> 100 µM	> 100 µM	> 100 µM		> 100 µM	> 100 µM	> 100 µM									
COc1cc2c(cc1OCCCC(=O)Nc1cc(C(=O)NCCCN(C)C)n(C)n1)N=CC1CCCN1C2=O (configuration not stated)	11.1 µM	> 100 µM	29.7 µM	> 41.6 µM	> 43.7 µM	> 100 µM	> 21.2 µM	> 20.7 µM	> 62.3 µM										
C#CC(O)/C=C/C(O)CCCC(O)CC#CC(O)C#CC(O)CCCC(O)/C=C/CCCC(=O)CCCCCCCCCCCCCCCC(O)C(O)C#CC(=O)O (configuration not stated)	> 50 µM	> 50 µM		> 50 µM	> 50 µM	> 50 µM	20.8 µM	> 50 µM	> 50 µM	36.3 µM									
c1ccc(N=C2SC3=NCCN3C2=Nc2ccccc2)cc1	35 µM	43 µM	34.7 µM	28.8 µM	52.9 µM	29.7 µM		33.5 µM	> 100 µM	11.8 µM									
CC1C(=O)O[C@H]2C1CC[C@@]1(C)[C@H](O)CC[C@@]13C[C@]2(O)OO3 (some centres not stated)	> 100 µM				> 100 µM		> 100 µM	> 100 µM	> 100 µM	> 100 µM									
CCOP(=O)(OCC)C1=NC=CC=CC1n1c(-c2ccccc2)nn(CC)c1=O (configuration not stated)	> 100 µM				> 100 µM	> 100 µM	> 100 µM	> 100 µM	> 100 µM	> 100 µM									
O=C1c2ccccc2-c2nc(/C=C/c3ccccc3)cc3c2c1nc1ccccc13	44.6 µM	26.9 µM	> 100 µM	> 100 µM	76.3 µM	68.4 µM		57 µM	> 100 µM	> 100 µM									
CC(NC(C#N)CC12CC3CC(CC(C3)C1)C2)c1ccccc1 (configuration not stated)	> 100 µM	> 100 µM		> 100 µM	> 100 µM		62.7 µM	> 100 µM	> 100 µM	59.4 µM									
CSc1nc2c(=O)n(-c3ccccc3)c(=S)n(-c3ccccc3)c2s1	> 100 µM	> 100 µM		> 100 µM	> 100 µM	> 100 µM	> 100 µM	> 100 µM	> 100 µM	> 100 µM									
CC1(C)CC2(C)CC1CC2NC(=O)CCN1CCOCC1 (configuration not stated)	> 100 µM	> 100 µM	> 100 µM	> 100 µM	> 100 µM	> 100 µM		> 100 µM	> 100 µM	> 100 µM									
CC(Cc1ccccc1)NC1=NCCO1 (configuration not stated)					> 100 µM		34.9 µM	58 µM	> 100 µM										
Clc1ncc(Cl)c(Cl)n1	10.9 µM	7.52 µM		24.1 µM	39.4 µM	22.9 µM	3.22 µM	11.2 µM	14.3 µM	> 100 µM									
O=C(N/N=C\c1ccccc1)Nc1cccc2ccccc12	51.5 µM	> 100 µM	98.3 µM	> 100 µM	37.2 µM	> 100 µM	> 100 µM	> 100 µM		> 100 µM									
O=C1ON=C2C3CC4CC12CC1(C3)C(=O)ON=C41	> 100 µM	> 100 µM	> 100 µM	> 100 µM	> 100 µM	> 100 µM	> 100 µM	> 100 µM		> 100 µM									
CS(=O)(=O)OCCCOS(C)(=O)=O	> 100 µM				> 100 µM	> 100 µM	> 100 µM	> 100 µM	> 100 µM	> 100 µM									
NC(=O)CC(N=C1C(=O)OC(C(O)CO)C1=NC(CC(N)=O)C(=O)O)C(=O)O (configuration not stated)	> 100 µM	> 100 µM		> 100 µM	> 100 µM	> 100 µM		> 100 µM	> 100 µM	> 100 µM									
Cc1nc(C(N)=S)sc1C(=O)C/C(=N/N)C(=O)Nc1ccc(Cl)cc1	> 100 µM	> 100 µM	> 100 µM		> 100 µM	> 100 µM	> 100 µM	> 100 µM	> 100 µM										
C=C1C(=O)O[C@@H]2[C@H](O)[C@@H](C)[C@@H]3C=CC(=O)[C@@]3(C)[C@H](OC(=O)C=C(C)C)[C@H]12	1.81 µM				11.4 µM	3.78 µM	2.25 µM	3.5 µM	7.91 µM	0.461 µM									
Oc1ccc(C#CCOc2ccccc2)cc1CNCCN(Cc1ccccn1)Cc1ccccn1	5.91 µM	3.44 µM		2.95 µM	2.96 µM	2.91 µM	2.79 µM	5.16 µM	2.27 µM	10.7 µM	2.04 µM	0.944 µM	1.82 µM	1.08 µM	0.762 µM	1.28 µM	0.833 µM	1.25 µM	0.668 µM
O=[N+]([O-])c1ccc2c(c1)c(S(=O)(=O)O)cc1nonc12	> 100 µM	> 100 µM	> 100 µM		> 100 µM	> 100 µM	> 100 µM	> 100 µM	> 100 µM										
O=C(OCc1ccccc1)N1CCN(C(=O)OCc2ccccc2)CCN(C(=O)OCc2ccccc2)CCN(C(=O)OCc2ccccc2)CCN(C(=O)OCc2ccccc2)CC1	> 100 µM	> 100 µM	> 100 µM	> 100 µM	> 100 µM	> 100 µM	> 100 µM	> 100 µM	> 100 µM										

From PubChem BioAssay (NCI)
